Results taken from patent US12053441B2, “Formulations for improving the delivery of hydrophobic agents” (THE ROYAL INSTITUTION FOR THE ADVANCEMENT OF LEARNING / …, priority 2018, dated 2024).
≈ marks a conversion by molar mass, not a printed value. Structures can show the parent of a compound that is named as a salt.

Tested on: UQ-deficient cells (Mclk1 KO or DKO cells)
Test: Screening for compounds that increase survival or respiration of UQ-deficient cells
Type: cell-based, mouse
Details: not given
Excerpt: Four different screening methods were developed. The screening methods 1 to 3 are based on rescue-of-lethality in glucose-free galactose-containing media. The presence of galactose instead of glucose forces the cells to rely on oxidative phosphorylation for energy production. Screening method 4 is based on rescue of respiration, implying that processes immediately dependent on UQ have been rescued. Libraries of small molecules were screened for compounds and/or agents that increase survival of UQ-deficient cells (e.g., Mclk1 KO or DKO cells) in standard or modified galactose media depending on the screen settings.
The screen uses cells lacking UQ (e.g., Mclk1 KO cells) and consists of three key steps: • 1) Day 0: preparation of Mclk1 KO cells in 96-well plates in standard (glucose-containing) culture medium. • 2) Day 1: changing to glucose-free galactose-containing medium and adding compounds to be screened at a concentration of approximately 10 μM. • 3) Day 4 to 6: following 3 to 5 days of incubation with the compound to be screened, media were removed and cell viability was assayed by resazurin reduction assay.
The screen also uses cells lacking UQ biosynthesis (e.g., DKO cells) and its protocol is essentially the same as the galactose-only screen except that in step 2, a minimal amount of UQ10 is added into the galactose screening media at a concentration at which the added UQ10 is insufficient by itself to support survival.
The screen uses Mclk1 SKO cells and its protocol is essentially the same as the galactose-only screen except that in step 2, the screening medium is added with 2,4-DHB at a concentration that allows the KO cells to restore some UQ biosynthetic ability but not sufficiently to allow for a level of UQ production that is sufficient for respiration-dependent growth. Thus, under these conditions a compound that can boost the overall level of UQ biosynthesis might allow the cells to make enough UQ to survive in a respiration-dependent medium. Such a screen can identify compounds that boost UQ biosynthesis at any level, including at the level of gene expression.
This screening approach aims to directly identify compounds that can boost mitochondrial respiratory chain activity in respiration-deficient cells. […] For this, cells were seeded into XF24 V7 culture plates and treated with testing compounds for 1 to 2 days before a treatment effect on cellular respiration is measured using the Seahorse XF-24e Flux Analyzer. The XF assay was the same as above described except galactose (10 mM) rather glucose was used as the sugar source to increase respiration rate and thus assay sensitivity.

Compound | identified by the screening methods as useful for UQ deficiency
CC1(C)CCC(CN2CCN(c3ccc(C(=O)NS(=O)(=O)c4ccc(NCC5CCOCC5)c([N+](=O)[O-])c4)c(Oc4cnc5[nH]ccc5c4)c3)CC2)=C(c2ccc(Cl)cc2)C1 [ABT-199] | identified
C[C@@H]1COCCN1c1cc(C2(S(C)(=O)=O)CC2)nc(-c2cccc3[nH]ccc23)n1 [AZ20] | identified
CNC(=O)c1cccc(-c2ccc3c(N4CCOC[C@@H]4C)nc(N4CCOC[C@@H]4C)nc3n2)c1 [AZD2014] | identified
Nc1cc(C(F)(F)F)c(-c2cc(N3CCOCC3)nc(N3CCOCC3)n2)cn1 [BKM120, buparlisib] | identified
CS(=O)(=O)N1CCc2c(-c3cnc(N)nc3)nc(N3CCOCC3)nc21 [CH5132799] | identified
CC(C)C[C@H](NC(=O)CNC(=O)c1cc(Cl)ccc1Cl)B(O)O [MLN2238] | identified
CC(C)n1nc(-c2cc3cc(O)ccc3[nH]2)c2c(N)ncnc21 [PP242] | identified
CCc1c2c(nc3ccc(O)cc13)-c1cc3c(c(=O)n1C2)COC(=O)[C@]3(O)CC [SN-38] | identified
Nc1nc(N)c2nc(-c3cccc(O)c3)cnc2n1 [TG100713] | identified
CNC(=O)Nc1ccc(-c2nc(N3CC4CCC(C3)O4)c3cnn(C4CCC5(CC4)OCCO5)c3n2)cc1 [WYE-125132] | identified
CNC1CCCN(c2c(F)cc3c(=O)c(C(=O)O)cn(C4CC4)c3c2OC)C1 (stereo not shown) [balofloxacin] | identified
CCC(=O)OCC(=O)[C@@]1(OC(=O)CC)[C@@H](C)C[C@H]2[C@@H]3CCC4=CC(=O)C=C[C@]4(C)[C@@]3(F)[C@@H](O)C[C@@]21C [betamethasone dipropionate] | identified
CCCCC(=O)O[C@]1(C(=O)CO)[C@@H](C)C[C@H]2[C@@H]3CCC4=CC(=O)C=C[C@]4(C)[C@@]3(F)[C@@H](O)C[C@@]21C [betamethasone valerate] | identified
CC(=O)OCC(=O)[C@@]12N=C(C)O[C@@H]1C[C@H]1[C@@H]3CCC4=CC(=O)C=C[C@]4(C)[C@H]3[C@@H](O)C[C@@]12C [deflazacort] | identified
CC1(C)O[C@@H]2C[C@H]3[C@@H]4CCC5=CC(=O)C=C[C@]5(C)[C@H]4[C@@H](O)C[C@]3(C)[C@]2(C(=O)CO)O1 [desonide] | identified
CC(=O)OCC(=O)[C@@]1(O)CC[C@H]2[C@@H]3CCC4=CC(=O)C=C[C@]4(C)[C@@]3(Cl)[C@@H](Cl)C[C@@]21C [dichlorisone acetate] | identified

Compound | identified by the screening methods as useful for UQ deficiency
C[C@H]1c2cccc(O)c2C(=O)C2=C(O)[C@]3(O)C(=O)C(C(N)=O)=C(O)[C@@H](N(C)C)[C@@H]3[C@@H](O)[C@@H]21 [doxycycline HCl] | identified
COc1cc2c(cc1Cc1cccc(Cl)c1F)c(=O)c(C(=O)O)cn2[C@H](CO)C(C)C [elvitegravir] | identified
CC1(C)O[C@@H]2C[C@H]3[C@@H]4C[C@H](F)C5=CC(=O)C=C[C@]5(C)[C@@]4(F)[C@@H](O)C[C@]3(C)[C@]2(C(=O)CO)O1 [fluocinolone acetonide] | identified
CC(=O)O[C@]1(C(C)=O)CC[C@H]2[C@@H]3C[C@H](C)C4=CC(=O)C=C[C@]4(C)[C@@]3(F)[C@@H](O)C[C@@]21C [fluorometholone acetate] | identified
CCC(=O)O[C@]1(C(=O)SCF)[C@H](C)C[C@H]2[C@@H]3C[C@H](F)C4=CC(=O)C=C[C@]4(C)[C@@]3(F)[C@@H](O)C[C@@]21C [fluticasone propionate] | identified
CC1(C)O[C@@H]2C[C@H]3[C@@H]4CCC5=CC(=O)CC[C@]5(C)[C@@]4(F)[C@@H](O)C[C@]3(C)[C@]2(C(=O)CCl)O1 [halcinonide] | identified
C[C@]12CCC(=O)C=C1CC[C@@H]1[C@@H]2[C@@H](O)C[C@@]2(C)[C@H]1CC[C@]2(O)C(=O)CO [hydrocortisone] | identified
CCOC(=O)O[C@]1(C(=O)OCCl)CC[C@H]2[C@@H]3CCC4=CC(=O)C=C[C@]4(C)[C@H]3[C@@H](O)C[C@@]21C [ioteprednol etabonate] | identified
CCc1c2c(nc3ccc(OC(=O)N4CCC(N5CCCCC5)CC4)cc13)-c1cc3c(c(=O)n1C2)COC(=O)[C@]3(O)CC [irinotecan] | identified
C[C@@H]1C[C@H]2[C@@H]3CCC4=CC(=O)C=C[C@]4(C)[C@@]3(Cl)[C@@H](O)C[C@]2(C)[C@@]1(OC(=O)c1ccco1)C(=O)CCl [mometasone furoate] | identified
CC(=O)OCC(=O)[C@@]1(O)CC[C@H]2[C@@H]3CCC4=CC(=O)C=C[C@]4(C)[C@H]3[C@@H](O)C[C@@]21C [prednisolone acetate] | identified
C[C@]12C=CC(=O)C=C1CC[C@@H]1[C@@H]2[C@@H](O)C[C@@]2(C)[C@H]1CC[C@]2(O)C(=O)CO [prednisolone] | identified
CC1=C(CC(=O)O)c2cc(F)ccc2/C1=C\c1ccc([S+](C)[O-])cc1 (stereo not shown) [sulindac] | identified
C[C@]12C=CC(=O)C=C1CC[C@H]1[C@@H]3C[C@@H](O)[C@](O)(C(=O)CO)[C@@]3(C)C[C@H](O)[C@@]12F [triamcinolone] | identified
Caspofungin acetate | identified

Same assay, conditions: DKO cells, minimal UQ10 added

Compound | hit in the UQ supplementation screen (method 2)
Caspofungin acetate | one of the hits

Tested on: not given
Test: not given
Details: cited from earlier work

Compound | solubility in water
C=CCNC1=C2C[C@@H](C)C[C@H](OC)[C@H](O)[C@@H](C)/C=C(\C)[C@H](OC(N)=O)[C@@H](OC)/C=C\C=C(/C)C(=O)NC(=CC1=O)C2=O [17-AAG] | 0.1 mg/mL (≈ 171 µM)
O=C(O)COC(=O)Cc1ccccc1Nc1c(Cl)cccc1Cl [aceclofenac] | insoluble
Nc1nc2c(ncn2COCCO)c(=O)[nH]1 [acyclovir] | < 2.5 mg/mL
CCCSc1ccc2nc(NC(=O)OC)[nH]c2c1 [albendazole] | insoluble
CCCC1O[C@@H]2C[C@H]3[C@@H]4CCC5=CC(=O)C=C[C@]5(C)[C@H]4[C@@H](O)C[C@]3(C)[C@]2(C(=O)CO)O1 (stereo partly shown) [budesonide] | 10.7 mg/1
CC(=O)O[C@@]12CO[C@@H]1C[C@H](O)[C@@]1(C)C(=O)[C@H](O)C3=C(C)[C@@H](OC(=O)[C@H](O)[C@@H](NC(=O)OC(C)(C)C)c4ccccc4)C[C@@](O)([C@@H](OC(=O)c4ccccc4)[C@H]21)C3(C)C [docetaxel] | 0.00493 mg/mL (≈ 6.1 µM)
COc1cc([C@@H]2c3cc4c(cc3[C@@H](O[C@@H]3O[C@@H]5CO[C@@H](C)O[C@H]5[C@H](O)[C@H]3O)[C@H]3COC(=O)[C@H]23)OCO4)cc(OC)c1O [etoposide] | 0.2 mg/mL (≈ 340 µM)
CC(C)(C)NC(=O)[C@H]1CC[C@H]2[C@@H]3CC[C@H]4NC(=O)C=C[C@]4(C)[C@H]3CC[C@]12C [finasteride] | 0.0117 mg/mL (≈ 31.4 µM)
O=C(O)c1ccccc1Nc1cccc(C(F)(F)F)c1 [flufenamic acid] | 0.00909 mg/mL (≈ 32.3 µM)
O=c1cc(-c2ccc(O)c(O)c2)oc2cc(O)cc(O)c12 [luteolin] | 0.00572 mg/mL (≈ 20 µM)
COc1ccc2[nH]c([S+]([O-])Cc3ncc(C)c(OC)c3C)nc2c1 (stereo not shown) [omeprazole] | 0.359 mg/mL (≈ 1040 µM)
